Legend:
Mus musculus = assay: Carcinogenicity in mouse assessed as tumor development administered sc in left groin 6 times at 10-day interval; assay type: toxicity, organism-based; conditions: in vivo
[1] = Lipophilicy, log P of the compound; assay type: physicochemical; conditions: octanol/water

Structure (SMILES) | logP [1] | Activity (Mus musculus)
Cc1cc([N+](=O)[O-])c2ccccc2[n+]1[O-] | 1.25 | Toxic
CCc1cc([N+](=O)[O-])c2ccccc2[n+]1[O-] | 1.76 | Toxic
CC(C)(C)c1cc([N+](=O)[O-])c2ccccc2[n+]1[O-] | 1.07 | –
CCc1c(C)c([N+](=O)[O-])c2ccccc2[n+]1[O-] | 2.56 | –
CC(C)(C)c1ccc2c(c1)c(NO)cc[n+]2[O-] | 2.05 | Non-toxic
CCCCCCc1ccc2c(c1)c([N+](=O)[O-])cc[n+]2[O-] | 3.26 | Non-toxic
CCCCCCc1ccc2c(c1)c(NO)cc[n+]2[O-] | 3.35 | Non-toxic
[O-][n+]1ccc(NO)c2cc(C3CCCCC3)ccc21 | 2.89 | Non-toxic
O=[N+]([O-])c1cc[n+]([O-])c2ccc(C3CCCCC3)cc12 | 2.8 | Non-toxic
O=[N+]([O-])c1ccc2c(c1)c(NO)cc[n+]2[O-] | -0.28 | Toxic
CCCCc1ccc2c(c1)c(NO)cc[n+]2[O-] | 2.1 | Toxic
Cc1c[n+]([O-])c2ccccc2c1[N+](=O)[O-] | 1.24 | –
O=[N+]([O-])c1c(Cl)c[n+]([O-])c2ccccc12 | 1.33 | –
O=[N+]([O-])c1c(F)c[n+]([O-])c2ccccc12 | 1.25 | –
O=[N+]([O-])c1c(Br)c[n+]([O-])c2ccccc12 | 1.99 | Toxic
COc1c[n+]([O-])c2ccccc2c1[N+](=O)[O-] | 0.43 | Non-toxic
O=[N+]([O-])c1cc[n+]([O-])c2ccccc12 [4-NITROQUINOLINE-1-OXIDE] | 1.01 | Toxic

Further lines, with some results ahead:

logP [1] | Structure (SMILES) | Activity (Mus musculus)
1 | O=[N+]([O-])c1cc[n+]([O-])c2c(F)cccc12 | –
0.95 | O=[N+]([O-])c1cccc2c1c([N+](=O)[O-])cc[n+]2[O-] | –
0.76 | O=[N+]([O-])c1cc[n+]([O-])c2c([N+](=O)[O-])cccc12 | Non-toxic
0.45 | O=[N+]([O-])c1ccc2c([N+](=O)[O-])cc[n+]([O-])c2c1 | Non-toxic
1.25 | Cc1cccc2c1c([N+](=O)[O-])cc[n+]2[O-] | Toxic
1.24 | Cc1ccc2c(c1)c([N+](=O)[O-])cc[n+]2[O-] | Toxic
1.49 | Cc1ccc2c([N+](=O)[O-])cc[n+]([O-])c2c1 | Toxic
1.48 | Cc1cccc2c([N+](=O)[O-])cc[n+]([O-])c12 | Toxic
3.11 | CCCCc1ccc2c(c1)c([N+](=O)[O-])cc[n+]2[O-] | Toxic
3.06 | CC(C)(C)c1ccc2c(c1)c([N+](=O)[O-])cc[n+]2[O-] | –
0.9 | O=[N+]([O-])c1ccc2c(c1)c([N+](=O)[O-])cc[n+]2[O-] | –
1.4 | O=[N+]([O-])c1cc[n+]([O-])c2ccc(Cl)cc12 | Toxic
2.49 | O=[N+]([O-])c1cc[n+]([O-])c2cc(Cl)c(Cl)cc12 | Toxic
1.75 | O=[N+]([O-])c1cc[n+]([O-])c2cc(Cl)ccc12 | Toxic
0.42 | O=C(O)c1ccc2c(c1)c([N+](=O)[O-])cc[n+]2[O-] | –
1.75 | O=[N+]([O-])c1cc[n+]([O-])c2cccc(Cl)c12 | Toxic
